Measurements from PubChem BioAssay (NCI).
“And” between values parts separate entries of the source, which are not always exact repeats. Identical values can stand only once.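 Method: 48-hour compound exposure of cells in 96-well plates, five concentrations, linear interpolation of endpoints. The concentration for 50% growth inhibition is given as GI50. Definition used: TGI = concentration required for complete inhibition of growth.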

Key:
Assay in all cases: NCI tumour cell line growth inhibition, 48 h
OVCAR-4 ovarian = system: OVCAR-4 ovarian
HT29 colon = system: HT29 colon
SNB-19 CNS = system: SNB-19 CNS
HCC-2998 colon = system: HCC-2998 colon
UO-31 renal = system: UO-31 renal
RPMI-8226 leukemia = system: RPMI-8226 leukemia
NCI-H23 lung = system: NCI-H23 lung
HCT-116 colon = system: HCT-116 colon
SW-620 colon = system: SW-620 colon
NCI-H460 lung = system: NCI-H460 lung

| SMILES | GI50 (OVCAR-4 ovarian) | TGI (OVCAR-4 ovarian) | GI50 (HT29 colon) [µM] | TGI (HT29 colon) | GI50 (SNB-19 CNS) [µM] | TGI (SNB-19 CNS) [µM] | GI50 (HCC-2998 colon) [µM] | TGI (HCC-2998 colon) | GI50 (UO-31 renal) [µM] | TGI (UO-31 renal) | GI50 (RPMI-8226 leukemia) [µM] | TGI (RPMI-8226 leukemia) [µM] | GI50 (NCI-H23 lung) [µM] | TGI (NCI-H23 lung) | GI50 (HCT-116 colon) [µM] | TGI (HCT-116 colon) | GI50 (SW-620 colon) [µM] | TGI (SW-620 colon) [µM] | GI50 (NCI-H460 lung) | TGI (NCI-H460 lung) |
| --- | --- | --- | --- | --- | --- | --- | --- | --- | --- | --- | --- | --- | --- | --- | --- | --- | --- | --- | --- | --- |
| CNC(C)[C@H]1CCC2C3CCC4C[C@@H](N(C)C(=O)c5ccccc5)CC[C@]4(C)C3CC[C@@]21C (stereo partly specified) | 1.44 µM | 16.4 µM | 0.291 | 1.23 µM | 2.88 | 8.36 | 1.63 | 4.8 µM | 0.794 | 2.69 µM | 0.426 | 3.3 | 0.737 | 4.96 µM | 0.409 | 1.73 µM | 0.854 | 2.9 | 0.732 µM | 2.33 µM |
| Clc1ccc(N/N=C(\c2ccccc2)c2ccccn2)nc1 | 0.0201 µM | > 100 µM and 56.2 µM | 0.0364 | > 37.2 µM and 10.8 µM | 0.466 | > 100 | 0.341 | > 48.4 µM and 21.1 µM | 0.163 | 2.38 µM and 0.817 µM | 0.128 | > 52.6 | 0.279 | > 77.9 µM and 12.9 µM | 0.0313 | 10.6 µM and 11.1 µM | 0.0958 | > 65.3 | 0.29 µM and 0.171 µM | > 39.9 µM and 13.6 µM |
| Cc1ccc(NC(=O)N2CCCCC2)cc1[N+](=O)[O-] | > 100 µM | > 100 µM | > 100 | > 100 µM | > 100 | > 100 | > 100 | > 100 µM | > 100 | > 100 µM | 90.1 | > 100 | > 100 | > 100 µM | > 100 | > 100 µM | > 100 | > 100 | > 100 µM | > 100 µM |
| CC1NCCc2c1[nH]c1cc(O)ccc21 (stereo unspecified) | – | > 100 µM | – | > 100 µM | – | > 100 | – | > 100 µM | – | > 100 µM | – | > 100 | – | > 100 µM | – | > 100 µM | – | > 100 | – | > 100 µM |
| CN(N=O)C(=O)Nc1ccc(C(=O)O)cc1 | – | > 100 µM | – | > 100 µM | – | > 100 | – | > 100 µM | – | > 100 µM | – | > 100 | – | > 100 µM | – | > 100 µM | – | > 100 | – | > 100 µM |
| O=C(Nc1nc(-c2ccccc2)cs1)c1cc(O)c(O)c(O)c1 | 2.22 µM | 57.3 µM | 5.95 | 44.1 µM | 2.61 | > 100 | 10.1 | 36.3 µM | 0.605 | 19.4 µM | 2.99 | 22.1 | 4.36 | 51.5 µM | 2.97 | 16.5 µM | 2.66 | 37.4 | 3.43 µM | 17 µM |
| COc1cc(/C=C2\NC(=S)C3Cc4c(OC)c(C)c(OC)c(OC)c4C2N3C)c(OC)c(C)c1OC (stereo unspecified) | – | > 100 µM | – | > 100 µM | – | > 100 | – | > 100 µM | – | > 100 µM | – | > 100 | – | > 100 µM | – | > 100 µM | – | > 100 | – | 30 µM |
| CC(=O)OCC1OC(n2c(=S)n(-c3ccccc3)c(=O)c3cc(Br)ccc32)C(OC(C)=O)C(OC(C)=O)C1OC(C)=O (stereo unspecified) | 10.6 µM and > 100 µM | > 100 µM | – | > 100 µM | – | > 100 | – | > 100 µM | – | > 100 µM | – | > 100 | – | > 100 µM | > 100 | > 100 µM | – | > 100 | – | > 100 µM |
| CCOC(=O)Nc1ccc(C(=O)/C=C/c2ccccc2)cc1 | 43.8 µM | > 100 µM | 10.1 | > 100 µM | 26.4 | > 100 | 17.1 | 31.6 µM | 26.9 | > 100 µM | 3.76 | 22.5 | 23.7 | 61.1 µM | 3.31 | 11.4 µM | 19.2 | > 100 | 28.9 µM | > 100 µM |
| N#CSCC1CC(O)(c2ccccc2)CC(c2ccc(Cl)cc2)O1 (stereo unspecified) | 4.44 µM | 15.3 µM | 3.44 | 8.74 µM | 6.9 | 19.7 | 8.56 | 21.5 µM | 1.61 | 4.84 µM | 1.26 | 5.39 | 2.41 | 6.53 µM | 1.62 | 3.1 µM | 1.83 | 3.35 | 2.33 µM | 6.38 µM |
| Cc1cccc2c(N=Nc3ccccc3[N+](=O)[O-])c(O)[nH]c12 | – | 16.9 µM | – | > 52.7 µM | – | > 74.1 | – | > 31.6 µM | – | 22.5 µM | – | > 89.3 | – | 23.4 µM | – | 34 µM | – | > 74.6 | – | 30.6 µM |
| OCc1ncc(-c2ccccc2)s1 | > 100 µM | > 100 µM | > 100 | > 100 µM | > 100 | > 100 | > 100 | > 100 µM | > 100 | > 100 µM | > 100 | > 100 | > 100 | > 100 µM | > 100 | > 100 µM | > 100 | > 100 | > 100 µM | > 100 µM |
| Cc1[nH]c(=O)nc(N/N=C/c2ccc(Cl)cc2)c1C(=O)Nc1ccc(Cl)cc1 | – | 22.4 µM | – | > 100 µM | – | > 15.8 | – | > 100 µM | – | > 100 µM | – | > 80.2 | – | > 93.1 µM | – | 17.1 µM | – | > 89.3 | – | 39.7 µM |
| CCOc1ccc(NC(=O)c2cc3ccccc3cc2O)cc1 | > 100 µM | > 100 µM | > 100 | > 100 µM | 41.2 | > 100 | > 100 | > 100 µM | 49.3 | > 100 µM | 38.9 | > 100 | 45.9 | > 100 µM | 71.2 | > 100 µM | > 100 | > 100 | > 100 µM | > 100 µM |
| Cc1cccc(C)c1NC(=O)CCCC(=O)C(C#N)c1ccc(Cl)cc1 (stereo unspecified) | – | > 100 µM | – | > 100 µM | – | > 100 | – | > 100 µM | – | > 100 µM | – | > 100 | – | > 100 µM | – | > 100 µM | – | > 100 | – | > 100 µM |
| CCCCCCCC(=O)NS(=O)(=O)c1ccccc1 | – | > 100 µM | – | > 100 µM | – | > 100 | – | > 100 µM | – | > 100 µM | – | > 100 | – | > 100 µM | – | > 100 µM | – | > 100 | – | > 100 µM |
| O=C1c2ccccc2C(=O)c2sc(Nc3ccc(Cl)cc3)nc21 | – | 4.12 µM | – | 15.5 µM | – | 9.71 | – | 7.43 µM | – | 6.35 µM | – | 4.73 | – | 2.81 µM | – | 3.4 µM | – | 3.31 | – | 11.7 µM |
| Cc1cc(Cl)cc2c1NC(=O)C2(O)CC(=O)c1ccc(F)cc1 (stereo unspecified) | – | 98.1 µM | – | > 100 µM | – | > 100 | – | > 100 µM | – | > 100 µM | – | 65.3 | – | > 100 µM | – | > 100 µM | – | > 100 | – | > 100 µM |
| NC(=S)N/N=C/c1ccc(OC(=O)COc2ccccc2)cn1 | 3.39 µM | > 100 µM | 39 | > 100 µM | 28.5 | > 100 | 8.37 | > 100 µM | 3.91 | 39.2 µM | 7.47 | > 100 | 4.49 | > 100 µM | 5.98 | > 100 µM | 5.02 | > 100 | 5.04 µM | 63.4 µM |
| CC(C)c1ccc(/C=N/N=C(N)N)cc1 | 10.3 µM | 23.2 µM | 3.19 | 9.65 µM | 4.77 | 17.4 | 2.04 | 4.78 µM | 10.3 | 22.3 µM | 3.6 | 16.4 | 3.96 | 19.7 µM | 3.34 | 11.8 µM | 2.9 | 11.6 | 3.89 µM | 14.4 µM |
| CCOC(=O)C1=C(c2ccccc2)NC(c2ccccc2)=C(C(=O)OCC)c2c1c(=O)cc[nH]c2=O | – | > 100 µM | – | > 100 µM | – | > 100 | – | > 100 µM | – | > 100 µM | – | > 100 | – | > 100 µM | – | > 100 µM | – | > 100 | – | > 100 µM |
| Cn1ccc2c3c(=O)cc[nH]c3ccc21 | > 100 µM | > 100 µM | > 100 | > 100 µM | > 100 | > 100 | > 100 | > 100 µM | > 100 | > 100 µM | > 100 | > 100 | > 100 | > 100 µM | > 100 | > 100 µM | > 100 | > 100 | > 100 µM | > 100 µM |
| C[n+]1cc2cc3c(cc2c2ccccc21)OCO3 | 3.78 µM | 36 µM | 3.77 | 23 µM | 1.64 | – | 3.81 | 19.2 µM | 27.8 | > 100 µM | 3.39 | 36.4 | 2.37 | 13.6 µM | 3.58 | > 100 µM | 4.52 | > 100 | 2.98 µM | 14.5 µM |
